US9303044B2, “7-(piperazin-1-yl)-5H-[1,3,4]thiadiazolo[3,2-A]pyrimidin-5-ones for the treatment of thrombotic disorders” (The Rockefeller University, priority 2012, dated 2016)

Tested on: platelet aggregation
Test: ADP-induced platelet aggregation assay in citrated platelet-rich plasma
Type: cell-based
Conditions: Homo sapiens, initial slopes, read-out: IC50, inhibition of platelet aggregation
Method: The platelet aggregation assay may be conducted by modification of the assay as disclosed in Blue et al., Blood 2008, 111, 1248, the contents of which are incorporated by reference in their entirety. Citrated platelet-rich plasma (PRP), may be generated by the centrifugation of whole blood at 650 g for 4 minutes at 22° C., and may then be incubated in aggregometer cuvettes with Compounds of the Invention (final concentration of 100 μM, 30 μM, 10 μM, 1 μM, 0.30 μM, 0.1 μM, 0.03 μM and 0.01 μM) or controls for 15 minutes at 37° C. After 30 seconds in the aggregometer (Bio/Data PAP8; Horsham, Pa.) at 37° C. with stiffing, ADP (5-20 μM) may be added to induce aggregation and the light transmittance is measured for 8 minutes. The initial slopes of aggregation in the presence of different concentrations of the Compound tested may be used to generate an IC50.

## NCC(=O)Nc1cc(-c2nn3c(=O)cc(N4CCNCC4)nc3s2)ccn1 [Example 14-B, 2-amino-N-(4-(5-oxo-7-(piperazin-1-yl)-5H-[1,3,4]thiadiazolo[3,2-a]pyrimidin-2-yl)pyridin-2-yl)acetamide]
  IC50: 53.6 ± 15.5 nM

## NCC(=O)Nc1cncc(-c2nn3c(=O)cc(N4CCNCC4)nc3s2)c1 [Example 14-C, 2-Amino-N-(5-(5-oxo-7-(piperazin-1-yl)-5H-[1,3,4]thiadiazolo[3,2-a]pyrimidin-2-yl)pyridin-3-yl)acetamide]
  IC50: 62 ± 10 nM
